The structures appear in SMILES notation.

The target in this assay is T1, HDAC2 (Homo sapiens, UniProt Q92769).
T1 construct: purchased Proteros
T1 sequence (Q92769 whole entry): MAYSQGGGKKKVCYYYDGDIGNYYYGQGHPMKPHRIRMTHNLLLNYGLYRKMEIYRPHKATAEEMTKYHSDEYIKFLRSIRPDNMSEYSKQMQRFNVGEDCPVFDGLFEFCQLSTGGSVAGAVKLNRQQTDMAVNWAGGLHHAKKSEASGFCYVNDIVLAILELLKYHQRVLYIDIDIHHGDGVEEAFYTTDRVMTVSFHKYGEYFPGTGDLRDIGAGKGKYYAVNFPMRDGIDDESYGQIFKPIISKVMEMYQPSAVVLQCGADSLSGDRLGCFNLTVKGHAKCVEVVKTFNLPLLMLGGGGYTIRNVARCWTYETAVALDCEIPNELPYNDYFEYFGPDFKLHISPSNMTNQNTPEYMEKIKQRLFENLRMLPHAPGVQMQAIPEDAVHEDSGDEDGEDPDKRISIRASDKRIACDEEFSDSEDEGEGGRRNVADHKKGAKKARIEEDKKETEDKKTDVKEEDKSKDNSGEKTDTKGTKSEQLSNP
The assay is described as follows: Reporter displacement assay (HDAC2 Kd). The class given is binding. Conditions: HDAC2 with C-terminal HIS-Tag 20 nM, 180 nM reporter probe, read after 4 h; Kd by Cheng Prusoff from probe displacement. How it is done:
HDAC2 containing a C-terminal HIS-Tag (Proteros) and fluorescently-labeled anti-HIS-antibody are diluted in one vial in assay buffer 50 mM Tris, pH 8.0, 1 mM DTT, 150 mM NaCl, and 0.01% Tween20. Components are pre-incubated for 30 min, then a small volume of reporter probe (Proteros) is added from a highly concentrated stock and incubation is continued for another 30 min. Final concentrations after adding the reporter probe amount to 20 nM HDAC2, 4 nM antibody, and 180 nM probe.
Ten μl/well of pre-formed complex are transferred into 384 well assay plates (Corning). Compounds to be profiled are serially diluted from 1×10^1-5.7×10^−5 mM in DMSO and 60 nl are added to assay plates by pintool transfer (CybiWell, Cybio). Fluorescence intensity signal is read after 4 h in a Pherastar FS (BMG Labtech) at 337/665 nm.
For Kd determination, percent probe displacement values are calculated for each compound concentration and plotted against the compound concentration. IC50-like values (corresponding to 50% probe displacement) are calculated using standard fitting algorithms. Since the reporter probe is used at a concentration reflecting its own Kd value, compound Kd values can be calculated according to the Cheng Prusoff equation.
In the table, “A” indicates a Kd value of less than 0.1 μM; “B” a Kd value of between 0.1 μM and 1.0 μM; “C” a Kd value of greater than 1.0 μM and less than or equal to 10.0 μM; and “D” a Kd value of greater than 10.0 μM.
As usually defined, the Kd is a measure of binding affinity in units of concentration. Higher therefore signals weaker binding. For the compound `Cc1ccc(C(=O)CSc2nc(O)c3ccccc3n2)cc1` [Compound 100], the dissociation constant (Kd) fell in the range of 1000 to 10000 nM. Take `C=CCn1c(SCC(=O)c2ccc(C)cc2)nc(O)cc1=O` [Compound 101]: the Kd was under 100 nM. `CCn1c(SCC(=O)c2ccccc2)nc(O)cc1=O` [Compound 102] gave a Kd of under 100 nM.

Regarding `CCc1c(O)nc(SCC(=O)c2ccc(OC)cc2)[nH]c1=O` [Compound 103], the Kd was under 100 nM. The value for `Cc1ccc(C(=O)CSc2nc(C)cc(=O)[nH]2)cc1` [Compound 104] was 100 to 1000 nM; that for `CCc1ccc(C(=O)CSc2nc(C)cc(=O)[nH]2)cc1` [Compound 105] was 1000 to 10000 nM.

Consider `CC(=O)Nc1ccc(C(=O)CSc2nc(O)cc(=O)[nH]2)cc1` [Compound 106], for which the Kd was under 100 nM. Compound `Cc1ccc(C(=O)CSc2nc(O)cc(=O)[nH]2)cc1` [Compound 107] registered a Kd of under 100 nM.

The compound `C=CCn1c(SCC(O)c2ccc(C)cc2)nc(O)cc1=O` (stereo not shown) [Compound 108] came in with a Kd of 100 to 1000 nM. The value for `Cc1ccc(C(=O)COc2nc(C)cc(=O)[nH]2)cc1` [Compound 109] was over 10000 nM; that for `Cc1ccc(C(=O)CSc2nc(O)c(-c3ccccc3)c(=O)[nH]2)cc1` [Compound 110] was under 100 nM; that for `O=C(CSc1nc(O)c(Cc2ccccc2)c(=O)[nH]1)c1ccccc1` [Compound 111] was 100 to 1000 nM. `Cc1ccc(C(=O)CSc2nc(O)cc(=O)n2C)cc1` [Compound 112] came in with a Kd of 100 to 1000 nM.

With `Cc1ccc(C(=O)CSc2nc(O)cc(=O)n2C(C)C)cc1` [Compound 113], the dissociation constant Kd is 100 to 1000 nM. `CC(=O)Nc1ccc(/C(CSc2nc(O)cc(=O)[nH]2)=N\O)cc1` [Compound 114] displayed a Kd of 1000 to 10000 nM. Compound `CCn1c(SCC(=O)c2ccc(C)cc2)nc(O)cc1=O` [Compound 115] showed a Kd of 100 to 1000 nM. Compound `CC(=O)Nc1ccc(C(=O)CSc2nc(O)cc(=O)n2C)cc1` [Compound 116] came in with a Kd of under 100 nM.

`CCn1c(SCC(=O)c2ccc(NC(C)=O)cc2)nc(O)cc1=O` [Compound 117]: the equilibrium dissociation constant (Kd) was under 100 nM.

On to `CC(=O)Nc1ccc(C(=O)CSc2nc(O)cc(=O)n2C(C)C)cc1` [Compound 118], for which the Kd was under 100 nM. With `CC(=O)Nc1ccc(C(=O)CSc2nc(O)c(-c3ccccc3)c(=O)[nH]2)cc1` [Compound 119], the dissociation constant Kd is under 100 nM. `COc1ccc(C(=O)CSc2nc(O)cc(=O)[nH]2)cc1` [Compound 120]: the Kd lay in the range of 100 to 1000 nM. `COc1ccc(C(=O)CSc2nc(O)c(-c3ccccc3)c(=O)[nH]2)cc1` [Compound 121] displayed a Kd of 100 to 1000 nM. On to `Nc1ccc(C(=O)CSc2nc(O)c(-c3ccccc3)c(=O)[nH]2)cc1` [Compound 122], for which the Kd fell in the range of 100 to 1000 nM. `CC(=O)Nc1ccc(C(=O)CSc2nc(O)c(C3CCCC3)c(=O)[nH]2)cc1` [Compound 123]: the Kd is under 100 nM.

In the case of `CC(=O)Nc1ccc(C(=O)CSc2nc3ccccc3c(=O)[nH]2)cc1` [Compound 124], the Kd fell in the range of 100 to 1000 nM. The value for `O=C(CSc1nc(O)c(-c2ccccc2)c(=O)[nH]1)c1ccc(NC(=O)c2ccccc2)cc1` [Compound 125] was under 100 nM; that for `CC(C)(C)OC(=O)Nc1ccc(C(=O)CSc2nc(O)c(-c3ccccc3)c(=O)[nH]2)cc1` [Compound 126] was 100 to 1000 nM. In turn, `Nc1ccc(C(=O)CSc2nc(O)cc(=O)[nH]2)cc1` [Compound 127] returned a Kd of 100 to 1000 nM. The compound `O=C(CSc1nc(O)cc(=O)[nH]1)c1ccc(NC(=O)C(F)(F)F)cc1` [Compound 128] yielded a Kd of under 100 nM.

In the case of `CC(C)C(=O)Nc1ccc(C(=O)CSc2nc(O)cc(=O)[nH]2)cc1` [Compound 129], the Kd was under 100 nM. As to `O=C(CSc1nc(O)cc(=O)[nH]1)c1ccc(NC(=O)c2ccccc2)cc1` [Compound 130], the dissociation constant Kd is 100 to 1000 nM. In turn, `CC(=O)Nc1ccc(C(=O)CSc2nc(O)cc(=O)n2C2CCCC2)cc1` [Compound 131] had a Kd of under 100 nM. In turn, `CC(=O)Nc1ccc(C(=O)CSc2nc(O)cc(=O)n2-c2ccccc2)cc1` [Compound 132] gave a Kd of 100 to 1000 nM. Take `CC(=O)N(C)c1ccc(C(=O)CSc2nc(O)cc(=O)[nH]2)cc1` [Compound 133]: the Kd was under 100 nM. The value for `CN(C)c1ccc(C(=O)CSc2nc(O)cc(=O)[nH]2)cc1` [Compound 134] was 100 to 1000 nM; that for `CC(C)(C)OC(=O)Nc1ccc(C(=O)CSc2nc(O)cc(=O)[nH]2)cc1` [Compound 135] was 100 to 1000 nM. `CC(=O)Nc1ccc(C(=O)CSc2nc(O)cc(=O)n2C2CC2)cc1` [Compound 136] came in with a Kd of 100 to 1000 nM. Turning to `O=C(CSc1nc(O)cc(=O)[nH]1)c1ccc(N2CCCC2=O)cc1` [Compound 137], the Kd is under 100 nM. The compound `O=C(CSc1nc(O)cc(=O)[nH]1)c1ccc2[nH]cnc2c1` [Compound 138] registered a Kd of 100 to 1000 nM. The value for `Cc1cccc(C(=O)CSc2nc(O)cc(=O)n2C)c1` [Compound 139] was 100 to 1000 nM.

Regarding `Cn1c(SCC(=O)c2ccccc2)nc(O)c(-c2ccccc2)c1=O` [Compound 140], the dissociation constant Kd lay in the range of 100 to 1000 nM. For the compound `Cn1c(SCC(=O)c2ccc(F)cc2)nc(O)cc1=O` [Compound 141], the Kd is 100 to 1000 nM.

`Cn1c(SCC(=O)c2cccc(F)c2)nc(O)cc1=O` [Compound 142]: the Kd was under 100 nM. Consider `Cn1c(SCC(=O)c2ccc(Cl)cc2)nc(O)cc1=O` [Compound 143], for which the Kd lay in the range of 100 to 1000 nM.

As to `Cn1c(SCC(=O)c2cccc(Cl)c2)nc(O)cc1=O` [Compound 144], the Kd lay within 100 to 1000 nM.

`Cc1ccc(C(=O)CSc2nc(=O)c3ccccc3n2C)cc1` [Compound 145] had a Kd of 100 to 1000 nM.

The record behind these values is patent US9981920B2, “Inhibitors of histone deacetylase” (Rodin Therapeutics, Inc., priority 2014, dated 2018).
